This is an account of results in US5719179A, “Compound GEX1” (Kyowa Hakko Kogyo Co., Ltd., priority 1995, dated 1998).

Data set [1] has as its system Human Epidermic Cancer A431 Cells. In words: Growth inhibition against Human Epidermic Cancer A431 cells (MTT). In kind it is cell-based. The settings on record: read-out: 50% growth inhibitory concentration (IC50), A431. As for the experimental part:
Growth Inhibition against Human Epidermic Cancer A431 Cells
Human Epidermic Cancer A431 cells were put into a 96-well microtiter plate (Nunc #167008) at 3×10^3 cells/well, and cultured in a 5% CO2 incubator at 37° C. for 24 hours. Each of 3 μg/ml GEX1 compounds was stepwise diluted. Each dilution was put into each well in an amount of 50 μl. The final concentration of the resulting suspension, in the wells of the plate was controlled to be at most 1 μg/ml. The cells were further cultured in the 5% CO2 incubator at 37° C. for 72 hours. Five hours before the termination of the incubation, MTT [3-(4,5-dimethylthiazo-2-yl)-2,5-diphenyltetrazolium bromide, Sigma Co., St. Louis, Mo.] dissolved in a medium as used for the culturing was put into each well in an amount of 50 μl, the final concentration of MTT added in each well being 1 mg/ml. After the culturing, DMSO was added to each well in an amount of 150 μl, followed by vigorous stirring with a plate mixer to completely dissolve crystals of MTT-formazan. The absorbance at 550 nm was measured by using a microplate reader MTP-32 (Corona Electric Co., Ltd.). and the cell growth inhibiting activity of each GEX1 compound tested was expressed in terms of 50% growth inhibitory concentration (IC50).

Data set [2] in a line: Solubility (physicochemical data).
The conditions of data set [3]: JP,A, 6-22770; cited from earlier work.
Where [4] appears, read: A-431, A431 cells, 72 hours, MTT, absorbance at 550 nm.

Values after ≈ are worked out from the molar mass of the structure shown. Read-outs that look alike come from different tables or passages of the source.

In the case of `COC(C(C)O)C(C)C1OC1(C)CC(C)C=CC=C(C)C1OC(CC(=O)O)CC(O)C1C` (centres unmarked) [GEX1Q1], the IC50 in data set [1] (setting [4]) was 0.42 µg/mL (≈ 0.924 µM). Also, in data set [2], the Solubility in chloroform result is listed as “hardly soluble”, the “Solubility in dimethylsulfoxide (DMSO)” value is “Soluble”, the Solubility in hexane result is “hardly soluble” and the Solubility in methanol result is listed as “Soluble”.

Turning to `COC(C(C)O)C(C)C1OC1(C)CC(C)(O)C=CC=C(C)C1OC(CC(=O)O)CCC1C` (centres unmarked) [GEX1Q2], the IC50 in data set [1] (A-431, 72 h) was found to be 0.23 µg/mL (≈ 0.506 µM). In addition, in data set [2], the Solubility in chloroform result is “hardly soluble”, the “Solubility in dimethylsulfoxide (DMSO)” value is on record as “Soluble”, the Solubility in hexane entry is given as “hardly soluble” and the Solubility in methanol result is “Soluble”.

Turning to `COC(C(C)O)C(C)C1OC1(C)CC(C)C=CC=C(C)C1OC(CC(=O)OC2OC(C(=O)O)C(O)C(O)C2O)CCC1C` (centres unmarked) [GEX1Q3], the IC50 in data set [1] (A-431, 72 h) turned out to be 0.02 µg/mL (≈ 0.0325 µM). Besides, in data set [2], the Solubility in chloroform result is recorded as “hardly soluble”, the “Solubility in dimethylsulfoxide (DMSO)” value is “Soluble”, the Solubility in hexane entry is given as “hardly soluble” and the Solubility in methanol entry was “Soluble”. The Solubility in water entry in data set [2] (water) is given as “Soluble”.

On to `COC(C(C)O)C(C)C1OC1(C)CC(C)C=CC=C(CO)C1OC(CC(=O)O)CCC1C` (centres unmarked) [GEX1Q4], for which, in data set [1] (A-431, 72 h), the IC50 was found to be 0.45 µg/mL (≈ 0.99 µM). In data set [2], the Solubility in chloroform entry is “hardly soluble”, the “Solubility in dimethylsulfoxide (DMSO)” value is reported as “Soluble”, the Solubility in hexane result is on record as “hardly soluble” and the Solubility in methanol entry was “Soluble”.

In the case of `CC(=CC=CC(C)CC1(C)OC1C(C)C(O)C(C)O)C1OC(CC(=O)O)CCC1C` (centres unmarked) [GEX1Q5], the IC50 in data set [1] (setting [4]) was determined as 0.0053 µg/mL (≈ 0.0125 µM). In data set [2], the “Solubility in dimethylsulfoxide (DMSO)” value was “Soluble”, the Solubility in hexane entry is given as “hardly soluble” and the Solubility in methanol result was “Soluble”.

Consider `COC(C(C)O)C(C)C1OC1(C)CC(C)C=CC=C(C)C1OC(CC(=O)O)CCC1C` (centres unmarked) [TAN-1609], for which the antitumor activity entry in data set [3] was “has antitumor activity”.
